Here are results for 2 molecules from US8454582B2, “Methods and devices for the treatment of ocular conditions” (Surmodics, Inc., priority 2004, dated 2013).

Data set [1] is described as follows: In vivo elution: HPLC detection of TA in tissues after 4-week subretinal PCL/TA implantation. The settings on record: four weeks after subretinal implant, PCL/TA 60:40, rabbit.
The conditions of data set [2]: 72 hours after injection; cited from earlier work.

`CC1(C)O[C@@H]2C[C@H]3[C@@H]4CCC5=CC(=O)C=C[C@]5(C)[C@@]4(F)[C@@H](O)C[C@]3(C)[C@]2(C(=O)CO)O1` [TA, Triamcinolone acetonide]: in data set [1], the “TA in the anterior structures (HPLC)” value is reported as “not detected”, the “TA in the blood (HPLC)” value is on record as “not detected” and the “TA in the posterior tissue samples (HPLC)” value is recorded as “confirmed the presence”.

As to `C[C@]12C=CC(=O)C=C1CC[C@H]1[C@@H]3C[C@@H](O)[C@](O)(C(=O)CO)[C@@]3(C)C[C@H](O)[C@@]12F` [triamcinolone], the “triamcinolone present in the vitreous that is associated with other tissues including the retina, pigment epithelium, and sclera” value in data set [2] is “less than 1%”.
